In assay [1] the test system is microorganisms with acquired resistance. Nature of the assay: microbe, parasite or virus in culture.
The subject of a further assay is P. aeruginosa. It counts as cell-based.
Assay [2] relates to inherently resistant microorganisms.
For a further assay, the system named is bacterial isolates. Particulars: for PIC: with Gentamicin.
Assay [3] concerns microorganisms with acquired resistance.
The subject of a further assay is E. coli strain ML-35. Format: cell-based.
Setting [4] is: S. aureus SA25 (Ciprofloxacin section).
The mark [5] stands for this setting: S. aureus MRSA 13, pair Mupirocin / MBI 10CN.
The mark [6] stands for this setting: S. aureus MRSA 17, pair Mupirocin / MBI 10CN, first line.
Where [7] appears, read: S. maltophilia SMA018, pair Amikacin / MBI 21A2.

≈ marks a conversion by molar mass, not a printed value. Read-outs that look alike come from different tables or passages of the source. Peptide text beside a SMILES is read from it.

For `CC1(C)S[C@@H]2[C@H](NC(=O)[C@H](N)c3ccccc3)C(=O)N2[C@H]1C(=O)O` [Ampicillin], the MIC came to 0.5 µg/mL (≈ 1.43 µM) in assay [1] (Staphylococcus haemolyticus, read-out: MIC alone, S. haemolyticus SH8459, pair Ampicillin / MBI 26); 64 µg/mL (≈ 183 µM) in assay [1] (Staphylococcus haemolyticus, read-out: MIC alone, S. haemolyticus SH8564, pair Ampicillin / MBI 26); 0.5 µg/mL (≈ 1.43 µM) in assay [1] (Staphylococcus haemolyticus, read-out: MIC alone, S. haemolyticus SH8575, pair Ampicillin / MBI 26); 0.5 µg/mL (≈ 1.43 µM) in assay [1] (Staphylococcus haemolyticus, read-out: MIC alone, S. haemolyticus SH8578, pair Ampicillin / MBI 26).
For `CO/N=C(\C(=O)N[C@@H]1C(=O)N2C(C(=O)O)=C(CSc3nc(=O)c(=O)[nH]n3C)CS[C@H]12)c1csc(N)n1` [Ceftriaxone], the MIC in combination in the assay with P. aeruginosa (P. aeruginosa PA008, pair Ceftriaxone / MBI 26) came out at 8 µg/mL; in the assay with P. aeruginosa (P. aeruginosa PA039, pair Ceftriaxone / MBI 11J02CN), 1 µg/mL; in assay [2] (S. maltophilia SMA021, pair Ceftriaxone / MBI 11B7CN), 1 µg/mL; in assay [2] (S. maltophilia SMA021, pair Ceftriaxone / MBI 26) it was 1 µg/mL; in assay [2] (S. maltophilia SMA023, pair Ceftriaxone / MBI 11B7CN) it was 8 µg/mL.
As for `CC[C@H](C)[C@H](NC(=O)[C@H](C)NC(=O)[C@@H]1CCCN1C(=O)CNC(=O)[C@H](C)NC(=O)[C@@H](NC(=O)[C@H](CCCCN)NC(=O)[C@H](CC(C)C)NC(=O)CNC(=O)[C@H](CO)NC(=O)[C@H](CC(C)C)NC(=O)[C@@H](NC(=O)[C@H](CCCNC(=N)N)NC(=O)[C@H](CCCNC(=N)N)NC(=O)[C@H](Cc1c[nH]c2ccccc12)NC(=O)[C@H](Cc1c[nH]c2ccccc12)NC(=O)[C@H](CCCCN)NC(=O)[C@@H](N)CCCCN)C(C)C)[C@@H](C)O)C(=O)N[C@@H](CCC(N)=O)C(=O)N[C@@H](CO)C(=O)N[C@H](C(=O)N[C@@H](CC(C)C)C(=O)N[C@@H](CC(N)=O)C(=O)N[C@@H](CCCCN)C(=O)O)C(C)C` [MBI 21A1, KKWWRRVLSGLKTAGPAIQSVLNK] (H-KKWWRRVLSGLKTAGPAIQSVLNK-OH; N-terminus and C-terminus assumed), the “Peptide MI Alone” value in the assay on bacterial isolates (setting [4]) amounted to 32 µg/mL. Moreover, the MIC in combination in assay [2] (S. aureus SA014 MRSA, pair Tobramycin / MBI 21A1) was determined as 16 µg/mL.
With `COc1cccc(OC)c1C(=O)N[C@@H]1C(=O)N2[C@@H]1SC(C)(C)[C@@H]2C(=O)O` [Methicillin], the MIC comb. in assay [3] (S. aureus SA7796, pair Methicillin / MBI 31) stood at 2 µg/mL (≈ 5.26 µM); in assay [3] (S. aureus SA7797, pair Methicillin / MBI 31), 2 µg/mL (≈ 5.26 µM); in assay [3] (S. aureus SA7818, pair Methicillin / MBI 26), 4 µg/mL (≈ 10.5 µM); in assay [3] (S. aureus SA7823, pair Methicillin / MBI 31), 2 µg/mL (≈ 5.26 µM); in assay [3] (S. aureus SA7834, pair Methicillin / MBI 26), 8 µg/mL (≈ 21 µM); in assay [3] (S. aureus SA7834, pair Methicillin / MBI 31) it was 1 µg/mL (≈ 2.63 µM). For the same compound, the MIC comb. in assay [3] (S. aureus SA7835, pair Methicillin / MBI 26) is 4 µg/mL (≈ 10.5 µM); in assay [3] (S. aureus SA7835, pair Methicillin / MBI 31) it was 2 µg/mL (≈ 5.26 µM). The MIC in assay [1] (Staphylococcus aureus, read-out: MIC alone, S. aureus SA7796, pair Methicillin / MBI 31) is 16 µg/mL (≈ 42.1 µM); in assay [1] (Staphylococcus aureus, read-out: MIC alone, S. aureus SA7797, pair Methicillin / MBI 31), 16 µg/mL (≈ 42.1 µM); in assay [1] (Staphylococcus aureus, read-out: MIC alone, S. aureus SA7818, pair Methicillin / MBI 26), 16 µg/mL (≈ 42.1 µM); in assay [1] (Staphylococcus aureus, read-out: MIC alone, S. aureus SA7823, pair Methicillin / MBI 31), 16 µg/mL (≈ 42.1 µM); in assay [1] (Staphylococcus aureus, read-out: MIC alone, S. aureus SA7834, pair Methicillin / MBI 26), 32 µg/mL (≈ 84.1 µM); in assay [1] (Staphylococcus aureus, read-out: MIC alone, S. aureus SA7834, pair Methicillin / MBI 31), 64 µg/mL (≈ 168 µM). The MIC in assay [1] (Staphylococcus aureus, read-out: MIC alone, S. aureus SA7835, pair Methicillin / MBI 26) was 32 µg/mL (≈ 84.1 µM); in assay [1] (Staphylococcus aureus, read-out: MIC alone, S. aureus SA7835, pair Methicillin / MBI 31) it was 64 µg/mL (≈ 168 µM).
In the case of `C/C(=C\C(=O)OCCCCCCCCC(=O)O)C[C@@H]1OC[C@H](C[C@@H]2O[C@H]2[C@@H](C)[C@H](C)O)[C@@H](O)[C@H]1O` [Mupirocin], the MIC in combination was 0.1 µg/mL in the assay on P. aeruginosa (P. aeruginosa PA2, pair Mupirocin / MBI 27); 0.1 µg/mL in the assay with P. aeruginosa (P. aeruginosa PA2, pair Mupirocin / MBI 29A3); 0.1 µg/mL in the assay on P. aeruginosa (P. aeruginosa PA3, pair Mupirocin / MBI 29A3); 0.3 µg/mL with P. aeruginosa (P. aeruginosa PA4, pair Mupirocin / MBI 27); 0.1 µg/mL with P. aeruginosa (P. aeruginosa PA4, pair Mupirocin / MBI 29A3); 0.1 µg/mL in the assay on P. aeruginosa (P. aeruginosa SBPA2, pair Mupirocin / MBI 29A3). Besides, in assay [2] (E. coli SBECO1, pair Mupirocin / MBI 28), the MIC in combination was 0.1 µg/mL. Besides, the MIC comb. amounted to 3 µg/mL (≈ 5.99 µM) in assay [3] (setting [5]); 1 µg/mL (≈ 2 µM) in assay [3] (setting [6]); 1 µg/mL (≈ 2 µM) in assay [3] (S. aureus MRSA 17, pair Mupirocin / MBI 11G13CN).
Consider `NC[C@H]1O[C@H](O[C@H]2[C@H](O)[C@@H](O[C@H]3O[C@H](CO)[C@@H](O)[C@H](N)[C@H]3O)[C@H](N)C[C@@H]2N)[C@H](N)C[C@@H]1O` [Tobramycin], for which the MIC comb. in assay [3] (S. maltophilia 037, pair Tobramycin / MBI 29) was found to be 4 µg/mL (≈ 8.56 µM). Also, the MIC in assay [1] (Stenotrophomonas maltophilia, read-out: MIC alone, S. maltophilia 041, pair Tobramycin / MBI 29) was found to be 16 µg/mL (≈ 34.2 µM).
Consider I L P W K W P W W P W R R [MBI 10CN], for which, in the assay on E. coli strain ML-35 (cells pre-incubated with vancomycin, compared to no pre-incubation), the ONPG hydrolysis diminished result is “approximately 50%”. Also, the MIC in the assay on bacteria (A. calcoaceticus AC001) is 64 µg/mL; in the assay with bacteria (E. cloacae ECL007), greater than 128 µg/mL; against bacteria (E. coli ATCC 25922, agarose dilution assay) it was 16 µg/mL; against bacteria (E. coli ECO001), 32 µg/mL; against bacteria (E. coli NCTC 10418, agarose dilution assay), 8 µg/mL; with bacteria (E. coli SBECO2), 16 µg/mL. Moreover, the MIC against bacteria (E. faecalis EFS004) was 8 µg/mL; in the assay with bacteria (E. faecium ATCC 29212, agarose dilution assay), 4 µg/mL; with bacteria (E. faecium EFM003), 2 µg/mL; in the assay on bacteria (K. pneumoniae KP002), 64 µg/mL; against bacteria (P. aeruginosa ATCC 27853, agarose dilution assay), greater than 128 µg/mL; with bacteria (P. aeruginosa NCTC 10662, agarose dilution assay), greater than 128 µg/mL. The MIC against bacteria (P. aeruginosa PA002) is greater than 128 µg/mL; in the assay with bacteria (S. aureus MRSA9, agarose dilution assay) it was 1 µg/mL; in the assay on bacteria (S. aureus MRSA13, agarose dilution assay), 4 µg/mL; with bacteria (S. aureus MRSA17, agarose dilution assay), 2 µg/mL; against bacteria (S. aureus SA003), 2 µg/mL; in the assay with bacteria (S. epidermidis SE010), 4 µg/mL. Moreover, the MIC was 64 µg/mL in the assay on bacteria (S. maltophilia SMA002); greater than 128 µg/mL against bacteria (S. marcescens SM82, agarose dilution assay); greater than 128 µg/mL against bacteria (S. marcescens SMS004); greater than 128 µg/mL with bacteria (S. pneumoniae 406LE8, agarose dilution assay); 64 µg/mL against bacteria (S. pneumoniae 60120, agarose dilution assay); 32 µg/mL in the assay on bacteria (S. pneumoniae ATCC 49619, agarose dilution assay). Also, the Peptide MIC in assay [3] (setting [5]) is 4 µg/mL; in assay [3] (setting [6]), 1 µg/mL; in assay [3] (S. aureus MRSA 17, pair Mupirocin / MBI 10CN, second line), 2 µg/mL.
In the case of I L R W P W W P W R R K [MBI 11B7CN], the FIC in the assay on P. aeruginosa (P. aeruginosa PA008, pair Ceftriaxone / MBI 11B7CN) came out at 9.50. Besides, the membrane permeabilizing activity result in the assay on E. coli strain ML-35 (peptide pre-incubated with 150 mM NaCl or 5 mM Mg2+) is “significant inhibition”. In addition, in the assay with bacterial isolates (Piperacillin + peptide, S. aureus 19 MRSA), the FIC is recorded as 0.50. Also, in the assay on bacterial isolates (S. aureus 19 MRSA), the “Peptide MIC + Piperacillin” value came to 1 µg/mL, the “Peptide MIC Alone” value is 4 µg/mL and the “Piperacillin MIC + Peptide” value stood at 32 µg/mL.
Regarding “KKWWRRALQGLKTAGPAIQSVLNK [MBI 21A2]”, in assay [2] (setting [7]), the “MIC Alone” value is 16 µg/mL and the MIC in combination is 8 µg/mL. The “acquired resistance of S. aureus to piperacillin and ciprofloxacin” value in assay [3] (antibiotic agents combined with the peptide) is reported as “overcome”.
Regarding “KWKSFIKKLTSAAKKVLTTGLPALIS [MBI 29A3]”, the figures for the “Peptide MI Alone” value with bacterial isolates (S. aureus SA10 (Ciprofloxacin section)) and in the assay with bacterial isolates (setting [4]) were 2 µg/mL and 1 µg/mL, respectively. For the same compound, the PIC in the assay on bacterial isolates (S. maltophilia SMA019) and in the assay with bacterial isolates (S. maltophilia SMA021) was 0.31 in each case. Besides, the MIC in combination in assay [2] (S. maltophilia SMA063, pair Amikacin / MBI 29A3) was found to be 4 µg/mL. Moreover, the “MIC Alone” value was 64 µg/mL in assay [2] (SMA036) and 8 µg/mL in assay [2] (SMA063). In addition, the “Peptide MIC Alone” value in assay [3] (EFS014) and in assay [3] (SA25) was 1 µg/mL each time.

The record behind these values is patent publication US6503881B2 (priority 1996, dated 2003).
